Assay results taken from patent publication US20250388544A1, “HETEROAROMATIC INHIBITORS OF ASTACIN PROTEINASES” (VIVORYON THERAPEUTICS N.V., priority 2019, published 2025).

Tests used:
Format in all cases: biochemical
hMeprin α = biological target: T1, hMeprin α (Homo sapiens, UniProt Q16819); experiment: Enzymatic assay, quenched peptide substrate cleavage, method B; conditions: geometric mean (geometric SD factor in parentheses); for Ki: Morrison's equation, read-out: Meprin alpha Ki(app); for IC50: read-out: Meprin alpha IC50
T1 sequence (Q16819 66-746): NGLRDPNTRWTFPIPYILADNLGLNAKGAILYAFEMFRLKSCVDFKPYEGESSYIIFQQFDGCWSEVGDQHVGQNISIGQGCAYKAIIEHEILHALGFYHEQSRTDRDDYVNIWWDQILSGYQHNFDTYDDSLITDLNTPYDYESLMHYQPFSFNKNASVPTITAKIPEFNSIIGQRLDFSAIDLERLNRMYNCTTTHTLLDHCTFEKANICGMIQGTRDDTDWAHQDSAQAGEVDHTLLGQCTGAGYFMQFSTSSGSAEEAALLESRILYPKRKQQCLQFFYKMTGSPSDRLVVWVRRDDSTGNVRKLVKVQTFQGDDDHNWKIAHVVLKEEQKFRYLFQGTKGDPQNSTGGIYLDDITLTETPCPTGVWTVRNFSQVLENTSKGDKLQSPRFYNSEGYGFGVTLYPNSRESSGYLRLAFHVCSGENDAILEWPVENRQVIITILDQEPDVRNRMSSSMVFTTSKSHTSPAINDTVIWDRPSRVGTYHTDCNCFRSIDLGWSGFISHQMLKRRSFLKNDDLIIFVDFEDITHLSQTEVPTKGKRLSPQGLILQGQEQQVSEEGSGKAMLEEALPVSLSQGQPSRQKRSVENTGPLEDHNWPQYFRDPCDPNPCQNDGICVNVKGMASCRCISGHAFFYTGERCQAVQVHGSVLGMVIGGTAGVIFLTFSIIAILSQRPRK
In short: (§1)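 Cleavage of internally quenched peptides was read at 340/420 nm and 30° C., with enzyme at 5e-8 to 2e-10 M and substrate at 0.15–80 μM. Inhibitor solutions contained 1% DMSO and substrate 0.5% DMSO. Method B gave Ki(app) values via Morrison's equation, with kinetics measured in at least duplicate on separate days.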

hMeprin β = biological target: T2, hMeprin β (Homo sapiens, UniProt Q16820); experiment: as above; conditions: geometric mean (geometric SD factor in parentheses); for Ki: Morrison's equation, read-out: Meprin beta Ki(app); for IC50: read-out: Meprin beta IC50
T2 sequence (Q16820 62-701): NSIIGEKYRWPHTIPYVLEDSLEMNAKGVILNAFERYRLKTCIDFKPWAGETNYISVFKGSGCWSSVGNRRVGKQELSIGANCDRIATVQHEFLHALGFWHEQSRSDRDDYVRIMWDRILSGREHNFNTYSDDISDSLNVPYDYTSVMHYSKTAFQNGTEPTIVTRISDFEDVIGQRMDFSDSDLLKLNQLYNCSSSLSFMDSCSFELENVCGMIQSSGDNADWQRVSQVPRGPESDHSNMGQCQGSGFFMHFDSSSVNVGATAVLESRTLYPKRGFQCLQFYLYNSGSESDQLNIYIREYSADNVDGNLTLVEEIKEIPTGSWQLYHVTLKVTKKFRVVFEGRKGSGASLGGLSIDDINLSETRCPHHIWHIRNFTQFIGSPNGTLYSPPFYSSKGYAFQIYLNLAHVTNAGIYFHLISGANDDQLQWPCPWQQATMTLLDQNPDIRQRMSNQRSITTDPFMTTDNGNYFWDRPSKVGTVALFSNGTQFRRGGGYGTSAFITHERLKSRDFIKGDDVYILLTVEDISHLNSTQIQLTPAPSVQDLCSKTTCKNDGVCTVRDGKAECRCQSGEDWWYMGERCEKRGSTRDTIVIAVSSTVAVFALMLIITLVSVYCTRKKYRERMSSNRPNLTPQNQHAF
In short: as §1

hMMP 9 = biological target: T3, hMMP 9 (Homo sapiens, UniProt P14780); experiment: Residual enzyme activity of other metalloproteases; conditions: read-out: Residual enzyme activity MMP9; for remaining activity at 10 µM: 10 μM inhibitor; for remaining activity at 200 µM: 200 μM inhibitor
T3 construct: purchased R&D systems
Method: (§2) The determination of enzymatic activity was based on the cleavage of internally quenched peptide substrates. A typical assay of 250 μl total volume measured in black 96 well plates consisted of 100 μl buffer, 50 μl enzyme at a final concentration of 5e-8 M to 2e-10 M, 50 μl substrate (0.15 to 80 μM, in buffer, 0.5% DMSO) and 50 μl inhibitor solution (in buffer, 1% DMSO). In case of 125 μl assay volume (black 96 half area well plates) all volumes were cut in half. Enzymatic activity of ADAMs was measured in 384 well plates with 60 μl total assay volume consisting of 20 μl inhibitor, 20 μl buffer, 10 μl enzyme and 10 μl substrate.
MMPs were activated prior to measurement by APMA (p-aminophenylmercuric acetate) treatment according to manufacturer's instructions (R&D systems).

hADAM 10 = biological target: T4, hADAM 10 (Homo sapiens, UniProt O14672); experiment: Residual enzyme activity of other metalloproteases; conditions: read-out: Residual enzyme activity ADAM10; for remaining activity at 10 µM: 10 μM inhibitor; for remaining activity at 200 µM: 200 μM inhibitor
T4 construct: purchased R&D systems
T4 sequence (O14672 214-748): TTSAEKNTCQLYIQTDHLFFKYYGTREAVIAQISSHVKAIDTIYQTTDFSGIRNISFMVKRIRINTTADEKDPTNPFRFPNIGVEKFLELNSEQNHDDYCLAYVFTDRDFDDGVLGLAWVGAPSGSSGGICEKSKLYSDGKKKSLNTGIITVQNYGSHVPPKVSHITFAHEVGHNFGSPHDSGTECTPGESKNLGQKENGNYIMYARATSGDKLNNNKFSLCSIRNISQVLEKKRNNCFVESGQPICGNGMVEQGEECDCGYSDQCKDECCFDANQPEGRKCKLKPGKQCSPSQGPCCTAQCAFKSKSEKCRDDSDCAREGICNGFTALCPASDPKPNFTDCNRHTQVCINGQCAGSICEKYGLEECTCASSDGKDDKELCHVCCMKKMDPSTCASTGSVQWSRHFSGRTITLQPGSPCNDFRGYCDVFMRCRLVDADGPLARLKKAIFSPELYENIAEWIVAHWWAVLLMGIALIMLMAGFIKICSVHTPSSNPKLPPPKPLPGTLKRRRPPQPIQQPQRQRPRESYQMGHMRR
Method: as §2

hADAM 17 = biological target: T5, hADAM 17 (Homo sapiens, UniProt P78536); experiment: Residual enzyme activity of other metalloproteases; conditions: read-out: Residual enzyme activity ADAM17; for remaining activity at 10 µM: 10 μM inhibitor; for remaining activity at 200 µM: 200 μM inhibitor
T5 construct: purchased R&D systems
Method: as §2

T3 sequence (P14780 107-707 limits assumed): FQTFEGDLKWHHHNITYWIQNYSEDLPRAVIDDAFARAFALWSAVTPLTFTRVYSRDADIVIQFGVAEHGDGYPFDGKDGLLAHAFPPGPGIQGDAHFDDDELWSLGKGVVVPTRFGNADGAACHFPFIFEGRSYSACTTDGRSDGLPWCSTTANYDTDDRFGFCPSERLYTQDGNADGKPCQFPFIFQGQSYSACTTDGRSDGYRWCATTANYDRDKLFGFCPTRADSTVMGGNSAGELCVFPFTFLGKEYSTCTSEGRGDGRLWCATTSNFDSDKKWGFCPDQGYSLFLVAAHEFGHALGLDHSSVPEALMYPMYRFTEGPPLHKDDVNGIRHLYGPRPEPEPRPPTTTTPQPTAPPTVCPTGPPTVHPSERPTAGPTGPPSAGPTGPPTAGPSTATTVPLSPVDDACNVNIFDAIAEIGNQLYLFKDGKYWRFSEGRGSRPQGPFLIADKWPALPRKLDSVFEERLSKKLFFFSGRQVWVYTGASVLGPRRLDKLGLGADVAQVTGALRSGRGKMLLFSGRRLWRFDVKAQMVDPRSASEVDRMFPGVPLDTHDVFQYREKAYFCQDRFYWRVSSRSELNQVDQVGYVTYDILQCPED
T5 sequence (P78536 215-824): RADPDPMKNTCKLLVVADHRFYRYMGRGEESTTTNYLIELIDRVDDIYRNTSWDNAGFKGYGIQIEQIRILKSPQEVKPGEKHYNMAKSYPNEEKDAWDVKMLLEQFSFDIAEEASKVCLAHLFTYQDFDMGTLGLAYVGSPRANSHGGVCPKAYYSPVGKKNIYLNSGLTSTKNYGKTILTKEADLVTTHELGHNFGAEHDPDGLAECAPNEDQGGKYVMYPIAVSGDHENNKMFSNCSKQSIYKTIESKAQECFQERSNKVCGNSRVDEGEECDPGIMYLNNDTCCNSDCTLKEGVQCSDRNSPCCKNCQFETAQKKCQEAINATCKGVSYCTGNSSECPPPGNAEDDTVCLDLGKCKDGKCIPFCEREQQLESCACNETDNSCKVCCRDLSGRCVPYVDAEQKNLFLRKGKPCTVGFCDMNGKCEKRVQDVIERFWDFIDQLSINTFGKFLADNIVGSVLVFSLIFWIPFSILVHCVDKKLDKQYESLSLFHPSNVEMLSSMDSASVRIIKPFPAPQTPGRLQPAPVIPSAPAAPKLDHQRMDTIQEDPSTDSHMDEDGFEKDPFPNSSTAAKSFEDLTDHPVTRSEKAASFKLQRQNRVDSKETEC

Row | Compound | remaining activity at 10 µM (hMMP 9) [%] | remaining activity at 200 µM (hMMP 9) [%] | remaining activity at 10 µM (hADAM 10) [%] | remaining activity at 200 µM (hADAM 10) [%] | remaining activity at 10 µM (hADAM 17) [%] | remaining activity at 200 µM (hADAM 17) [%] | Ki (hMeprin α) [µM] | IC50 (hMeprin α) [µM] | Ki (hMeprin β) [µM] | IC50 (hMeprin β) [µM]
1 | O=C(Cc1c(-c2ccccc2)nn(Cc2ccc3c(c2)OCO3)c1-c1ccccc1)NO [Example 43, 2-[1-(1,3-Benzodioxol-5-ylmethyl)-3,5-diphenyl-1H-pyrazol-4-yl]ethanehydroxamic acid] | 74 | 60 | 69 | 39 | 21 | 4 | 0.00059 | 0.00075 | 0.305 | 0.31
2 | O=C(Cc1c(-c2cccc(C(=O)O)c2)n[nH]c1-c1ccc(Cl)c(O)c1F)NO [Example 63, 3-[5-(4-Chloro-2-fluoro-3-hydroxy-phenyl)-4-[2-(hydroxyamino)-2-oxo-ethyl]-1H-pyrazol-3-yl]benzoic acid] | 94 | 71 | 90 | 74 | 99 | 91 | 0.005 | 0.005 | 0.004 | 0.004
3 | O=C(Cc1c(-c2ccccc2)noc1-c1ccccc1)NO [Example 2, 2-(3,5-Diphenylisoxazol-4-yl)ethanehydroxamic acid] | 86 | 16 | 80 | 22 | 62 | 9 | 0.004 | 0.004 | 0.584 | 0.586
4 | COc1ccc(-c2n[nH]c(-c3ccccc3)c2CC(=O)NO)cc1OC [Example 49, 2-[3-(3,4-Dimethoxyphenyl)-5-phenyl-1H-pyrazol-4-yl]ethanehydroxamic acid] | 90 | 44 | 87 | 13 | 65 | 6 | 0.00071 | 0.00079 | 0.083 | 0.084
5 | O=C(Cc1c(-c2ccc3c(c2)OCO3)n[nH]c1-c1ccccc1)NO [Example 50, 2-[3-(1,3-Benzodioxol-5-yl)-5-phenyl-1H-pyrazol-4-yl]ethanehydroxamic acid] | 72 | 16 | 59 | 5 | 51 | 5 | 0.001 | 0.001 | 0.109 | 0.118
6 | O=C(Cc1c(-c2ccccc2)nn(Cc2cccc(C(=O)O)c2)c1-c1ccccc1)NO [Example 41, 3-[[4-[2-(Hydroxyamino)-2-oxo-ethyl]-3,5-diphenyl-1H-pyrazol-1-yl]methyl]benzoic acid] | 83 | 36 | 92 | 66 | 84 | 25 | 0.00033 | 0.00039 | 0.011 | 0.01

More lines, main results first:

Row | remaining activity at 10 µM (hMMP 9) [%] | remaining activity at 200 µM (hMMP 9) [%] | remaining activity at 10 µM (hADAM 10) [%] | remaining activity at 200 µM (hADAM 10) [%] | remaining activity at 10 µM (hADAM 17) [%] | remaining activity at 200 µM (hADAM 17) [%] | Compound | Ki (hMeprin α) [µM] | IC50 (hMeprin α) [µM] | Ki (hMeprin β) [µM] | IC50 (hMeprin β) [µM]
7 | 96 | 68 | 87 | 76 | 92 | 56 | O=C(Cn1c(-c2ccccc2)nc2ccccc21)NO [Example 13, 2-(2-Phenylbenzimidazol-1-yl)ethanehydroxamic acid] | 0.128 | 0.141 | 1.13 | 1.14
8 | 90 | 53 | 89 | 68 | 88 | 56 | O=C(Cn1c(-c2ccccc2)cc2ccccc21)NO [Example 25, 2-(2-Phenylindol-1-yl)ethanehydroxamic acid] |  |  |  | 
9 | 93 | 65 | 66 | 12 | 76 | 27 | O=C(CCc1c(-c2ccccc2)n[nH]c1-c1ccccc1)NO [Example 3, 3-(3,5-Diphenyl-1H-pyrazol-4-yl)propanehydroxamic acid] | 0.078 | 0.08 | 9.35 | 9.66
10 | 89 | 39 | 75 | 21 | 75 | 24 | O=C(CCc1c(-c2ccccc2)noc1-c1ccccc1)NO [Example 4, 3-(3,5-Diphenylisoxazol-4-yl)propanehydroxamic acid] |  |  |  | 
11 | 92 | 1 | 83 | 29 | 82 | 25 | O=C(Cn1c(-c2ccccc2)ccc1-c1ccccc1)NO [Example 9, 2-(2,5-Diphenylpyrrol-1-yl)ethanehydroxamic acid] |  |  |  | 
12 | 99 | 54 | 89 | 83 | 90 | 56 | O=C(Cn1c(-c2ccccc2)nnc1-c1ccccc1)NO [Example 7, 2-(3,5-Diphenyl-1,2,4-triazol-4-yl)ethanehydroxamic acid] |  |  |  | 
